Data reported in PubChem BioAssay AID248 (DTP/NCI, 2004).
“And” between values parts separate entries of the source, which are not always exact repeats. Identical values can stand only once. Toxic doses and inconclusive results are not listed. No stated cut-off is given here; in the data, active means T/C of 150% or more; inactive means T/C below 125%.

System: L1210 leukemia ip in BDF1 mice, survival T/C
Experiment: NCI In Vivo Anticancer Drug Screen. Data for tumor model L1210 Leukemia (intraperitoneal) in B6D2F1 (BDF1) mice
Details: endpoint: mean survival time, higher = longer survival
Procedure, shortened: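 In this screen, tumor-bearing mice given compound are compared to those given vehicle, and their survival values are reported as a treated-to-control quotient.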

[1] = dose: 3.12 mg/kg/injection, schedule: Q01DX009 (ip), vehicle: saline
[2] = dose: 6.25 mg/kg/injection, schedule: Q01DX009 (ip), vehicle: saline
[3] = dose: 12.5 mg/kg/injection, schedule: Q04DX003 (ip), vehicle: saline
[4] = dose: 100.0 mg/kg/injection, schedule: Q01DX009 (ip), vehicle: saline with Tween-80
[5] = dose: 100.0 mg/kg/injection, schedule: Q04DX003 (ip), vehicle: saline with Tween-80
[6] = dose: 200.0 mg/kg/injection, schedule: Q01DX009 (ip), vehicle: saline with Tween-80
[7] = dose: 400.0 mg/kg/injection, schedule: Q01DX009 (ip), vehicle: saline with Tween-80
[8] = dose: 400.0 mg/kg/injection, schedule: Q04DX003 (ip), vehicle: saline with Tween-80
[9] = dose: 50.0 mg/kg/injection, schedule: Q01DX009 (ip), vehicle: saline
[10] = dose: 100.0 mg/kg/injection, schedule: Q01DX001 (ip), vehicle: saline
[11] = dose: 100.0 mg/kg/injection, schedule: Q01DX009 (ip), vehicle: saline
[12] = dose: 100.0 mg/kg/injection, schedule: Q04DX003 (ip), vehicle: saline
[13] = dose: 200.0 mg/kg/injection, schedule: Q01DX001 (ip), vehicle: saline
[14] = dose: 200.0 mg/kg/injection, schedule: Q04DX003 (ip), vehicle: saline
[15] = dose: 50.0 mg/kg/injection, schedule: Q01DX001 (ip), vehicle: saline
[16] = dose: 100.0 mg/kg/injection, schedule: Q01DX009 (ip), vehicle: Klucel (hydroxypropylcellulose) (HPC)
[17] = dose: 200.0 mg/kg/injection, schedule: Q01DX009 (ip), vehicle: Klucel (hydroxypropylcellulose) (HPC)

Measured: T/C

CCC[N+](C)(C)CCCCOCCCC[N+](C)(C)CCC
inactive: [1] 104 % of control | [2] 92 % of control | dose: 12.5 mg/kg/injection, schedule: Q01DX009 (ip), vehicle: saline 103 % of control | [3] 95 % of control

CC(=O)Nc1ccc(NC(=O)Nc2cc(C)ccc2C)cc1
inactive: dose: 25.0 mg/kg/injection, schedule: Q04DX003 (ip), vehicle: saline with Tween-80 91 % of control | dose: 50.0 mg/kg/injection, schedule: Q04DX003 (ip), vehicle: saline with Tween-80 89 % of control | dose: 100.0 mg/kg/injection, schedule: Q01DX001 (ip), vehicle: saline with Tween-80 91 % of control | [4] 92 % of control and 86 % of control | dose: 100.0 mg/kg/injection, schedule: Q04DX002 (ip), vehicle: saline with Tween-80 90 % of control and 91 % of control | [5] 91 % of control | dose: 200.0 mg/kg/injection, schedule: Q01DX001 (ip), vehicle: saline with Tween-80 89 % of control | [6] 99 % of control and 91 % of control | dose: 200.0 mg/kg/injection, schedule: Q04DX002 (ip), vehicle: saline with Tween-80 87 % of control and 90 % of control | dose: 400.0 mg/kg/injection, schedule: Q01DX001 (ip), vehicle: saline with Tween-80 89 % of control | [7] 92 % of control and 100 % of control | dose: 400.0 mg/kg/injection, schedule: Q04DX002 (ip), vehicle: saline with Tween-80 89 % of control and 91 % of control | [8] 87 % of control

NCc1ccc([N+](=O)[O-])cc1
inactive: [9] 93 % of control | [10] 96 % of control | [11] 96 % of control | [12] 101 % of control | [13] 104 % of control | dose: 200.0 mg/kg/injection, schedule: Q01DX009 (ip), vehicle: saline 110 % of control | [14] 93 % of control

CCC(C)c1ccc(O)c(CN(CCO)CCO)c1 (configuration not stated)
inactive: [10] 105 % of control | [13] 101 % of control

CC(=O)Nc1ccc(S(N)(=O)=O)cn1
inactive: [12] 102 % of control | [14] 89 % of control | dose: 400.0 mg/kg/injection, schedule: Q04DX003 (ip), vehicle: saline 86 % of control

CCCC(C)c1cc([N+](=O)[O-])cc([N+](=O)[O-])c1O (configuration not stated)
inactive: dose: 3.12 mg/kg/injection, schedule: Q01DX009 (ip), vehicle: saline with Tween-80 107 % of control | dose: 6.25 mg/kg/injection, schedule: Q01DX009 (ip), vehicle: saline with Tween-80 98 % of control | dose: 12.5 mg/kg/injection, schedule: Q01DX009 (ip), vehicle: saline with Tween-80 91 % of control

CCSC1OC(C(COC(C)=O)OC(C)=O)C(OC(C)=O)C1SCC (configuration not stated)
inactive: dose: 100.0 mg/kg/injection, schedule: Q04DX003 (ip), vehicle: other 97 % of control | dose: 200.0 mg/kg/injection, schedule: Q04DX003 (ip), vehicle: other 103 % of control | dose: 400.0 mg/kg/injection, schedule: Q04DX003 (ip), vehicle: other 101 % of control

CCCC(C)(C)C(=O)Nc1cccc(OC(=O)NC(C)C)c1
inactive: [4] 96 % of control | [6] 86 % of control | [7] 91 % of control

COc1cc(OC)c2c(c1Cl)OC1(C(=O)C=CCC1C)C2=O (configuration not stated)
inactive: [5] 98 % of control | dose: 200.0 mg/kg/injection, schedule: Q04DX003 (ip), vehicle: saline with Tween-80 104 % of control | [8] 96 % of control

COc1ccc2c(=O)c(C)c(C)oc2c1CN1CCOCC1
inactive: dose: 0.78 mg/kg/injection, schedule: Q01DX009 (ip), vehicle: saline 94 % of control | dose: 1.56 mg/kg/injection, schedule: Q01DX009 (ip), vehicle: saline 98 % of control | [1] 107 % of control | [2] 100 % of control

NC(N)=N/C(N)=N/NC(=O)c1ccncc1
inactive: dose: 66.0 mg/kg/injection, schedule: Q01DX Z (ip), vehicle: methylcellulose (MC) 100 % of control | dose: 93.0 mg/kg/injection, schedule: Q01DX Z (ip), vehicle: methylcellulose (MC) 89 % of control | dose: 140.0 mg/kg/injection, schedule: Q01DX Z (ip), vehicle: methylcellulose (MC) 91 % of control

C[C@H]1/C(=C/C(=O)OCCN(C)C)CC[C@H]2[C@H]1C(=O)C[C@H]1C(C)(C)[C@@H](O)CC[C@]21C
inactive: dose: 5.0 mg/kg/injection, schedule: Q01DX001 (ip), vehicle: other 106 % of control | dose: 10.0 mg/kg/injection, schedule: Q01DX001 (ip), vehicle: other 97 % of control | dose: 20.0 mg/kg/injection, schedule: Q01DX001 (ip), vehicle: other 97 % of control

CCCCCCCCCCCCCCCCCCNC(=S)Nc1ccc(S(=O)(=O)c2ccc(NC(=S)NCCCCCCCCCCCCCCCCCC)cc2)cc1
inactive: [15] 98 % of control | [10] 87 % of control | dose: 400.0 mg/kg/injection, schedule: Q01DX001 (ip), vehicle: saline 106 % of control

O=Nc1ccc(N(CCO)CCO)cc1
inactive: dose: 5.0 mg/kg/injection, schedule: Q01DX001 (ip), vehicle: saline 97 % of control | dose: 10.0 mg/kg/injection, schedule: Q01DX001 (ip), vehicle: saline 97 % of control | dose: 20.0 mg/kg/injection, schedule: Q01DX001 (ip), vehicle: saline 101 % of control | dose: 40.0 mg/kg/injection, schedule: Q01DX001 (ip), vehicle: saline 111 % of control

CC1CN1P1(N2CC2C)=NP(N2CC2C)(N2CC2C)=NP(N2CC2C)(N2CC2C)=N1 (configuration not stated)
inactive: dose: 12.5 mg/kg/injection, schedule: Q01DX001 (ip), vehicle: saline 106 % of control | [3] 116 % of control | dose: 25.0 mg/kg/injection, schedule: Q01DX001 (ip), vehicle: saline 105 % of control | dose: 25.0 mg/kg/injection, schedule: Q01DX009 (ip), vehicle: saline 118 % of control | dose: 25.0 mg/kg/injection, schedule: Q04DX003 (ip), vehicle: saline 116 % of control | [15] 120 % of control | [9] 111 % of control | dose: 50.0 mg/kg/injection, schedule: Q04DX003 (ip), vehicle: saline 112 % of control | dose: 75.0 mg/kg/injection, schedule: Q04DX003 (ip), vehicle: acetone 120 % of control | [11] 106 % of control | dose: 170.0 mg/kg/injection, schedule: Q04DX003 (ip), vehicle: acetone 105 % of control | [13] 104 % of control

OC1CCC2CCCC2C1 (configuration not stated)
inactive: [16] 97 % of control | dose: 100.0 mg/kg/injection, schedule: Q04DX003 (ip), vehicle: Klucel (hydroxypropylcellulose) (HPC) 102 % of control | [17] 97 % of control | dose: 200.0 mg/kg/injection, schedule: Q04DX003 (ip), vehicle: Klucel (hydroxypropylcellulose) (HPC) 98 % of control | dose: 400.0 mg/kg/injection, schedule: Q04DX003 (ip), vehicle: Klucel (hydroxypropylcellulose) (HPC) 99 % of control

O=C(Nc1cccc(C2=NCCN2)c1)c1ccc(N=Nc2ccc(C(=O)Nc3cccc(C4=NCCN4)c3)cc2)cc1
inactive: dose: 93.0 mg/kg/injection, schedule: Q01DX Z (ip), vehicle: water 93 % of control | dose: 186.0 mg/kg/injection, schedule: Q01DX Z (ip), vehicle: water 100 % of control

O=C1/C(=C\c2ccc([N+](=O)[O-])cc2)CS(=O)(=O)C/C1=C/c1ccc([N+](=O)[O-])cc1
inactive: dose: 50.0 mg/kg/injection, schedule: Q01DX009 (ip), vehicle: Klucel (hydroxypropylcellulose) (HPC) 97 % of control | [10] 97 % of control | [16] 93 % of control | [13] 94 % of control | [17] 92 % of control
